Here are results for one compound from ChEMBL document CHEMBL5104182, “Design and Synthesis of a 2-Amino-pyridine Derivative as a Potent CDK8 Inhibitor for Anti-colorectal Cancer Therapy” (J Med Chem, 2022).

Activity calls are given as the source filed them. The rule behind the calls is not given here.

In data set [1] the test system is HCT-116. As to the kind of experiment: Decrease in Dvl2 expression in human HCT-116 cells at 1 to 4 uM incubated for 12 hrs by western blotting analysis. The format is functional, cell-based. The note with it: dose 1-4 µM.
The target in data set [2] is T1, Cyclin-dependent kinase 8 (Homo sapiens, UniProt P49336). Briefly: Inhibition of CDK8 in human HCT-116 cells assessed as inhibition of […] phosphorylation at Tyr701 by Western blot analysis. In kind it is cell-based. For orientation: A western blot detects proteins with antibodies after separation by electrophoresis.
Data set [3] deals with Cyclin-dependent kinase 7 (Homo sapiens, UniProt P50613). Briefly: Inhibition of CDK7 (unknown origin) assessed as inhibition rate.
For data set [4], the system named is CT26. Briefly: Anticancer activity against mouse CT26 cells transplanted in […] mouse assessed as reduction in tumor volume at 10 to 40 mg/kg, po daily measured after 21 days. The format is functional, organism-based. The note with it: dose 10-40 mg/kg, time 21.0 day.
Data set [5] is described as follows: Cmax in Sprague-Dawley rat at 10 mg/kg, po upto 24 hrs by HPLC analysis. In kind it is ADME, organism-based. Set-up: time < 24 hrs, dose 10 mg/kg, route po. To be noted: in vivo.
Data set [6] in a line: MRT in Sprague-Dawley rat at 10 mg/kg, po upto 24 hrs by HPLC analysis. The format is ADME, organism-based. The note with it: in vivo.
Data set [7] relates to CT26. Briefly: In vivo inhibition of CDK8 in mouse CT26 cells transplanted in […] mouse assessed as upregulation of E2F1 in tumor at 10 to 40 mg/kg, po daily measured after 21 days. The format is functional, organism-based. To be noted: dose 10-40 mg/kg, time 21.0 day.
Data set [8] concerns the target T1, Cyclin-dependent kinase 8. The note with it: dose 200.0 nM.
Data set [9] is described as follows: Toxicity in ICR mouse assessed as abnormal behavior at 1000 mg/kg, using gastric tube. In kind it is organism-based. To be noted: in vivo, po, route ig.
A short description of data set [10]: MRT in Sprague-Dawley rat at 2 mg/kg, iv upto 24 hrs by HPLC analysis. The format is ADME, organism-based. To be noted: in vivo.
The nature of data set [11]: Toxicity in ICR mouse assessed as spleen damage at 1000 mg/kg, using gastric tube by H&E staining assay. The format is organism-based. The note with it: in vivo, po, route ig.
Data set [12] deals with HCT-116. As to the kind of experiment: Decrease in CTD phosphorylation in human HCT-116 cells at 1 to 4 uM incubated for 48 hrs by western blotting analysis. In kind it is functional, cell-based. To be noted: dose 1-4 µM.
Data set [13] deals with HCT-116. Briefly: Antiproliferative activity against sorafenib-resistant human HCT-116 cells assessed as cell viability incubated for 48 hrs by MTT assay. The format is functional. (In general: Tetrazolium dyes change colour on reduction, which living cells bring about.)
Data set [14] in a line: Toxicity in ICR mouse assessed as kidney damage at 1000 mg/kg, using gastric tube by H&E staining assay. In kind it is organism-based. The note with it: in vivo, po, route ig.

T1 sequence (P49336 whole entry): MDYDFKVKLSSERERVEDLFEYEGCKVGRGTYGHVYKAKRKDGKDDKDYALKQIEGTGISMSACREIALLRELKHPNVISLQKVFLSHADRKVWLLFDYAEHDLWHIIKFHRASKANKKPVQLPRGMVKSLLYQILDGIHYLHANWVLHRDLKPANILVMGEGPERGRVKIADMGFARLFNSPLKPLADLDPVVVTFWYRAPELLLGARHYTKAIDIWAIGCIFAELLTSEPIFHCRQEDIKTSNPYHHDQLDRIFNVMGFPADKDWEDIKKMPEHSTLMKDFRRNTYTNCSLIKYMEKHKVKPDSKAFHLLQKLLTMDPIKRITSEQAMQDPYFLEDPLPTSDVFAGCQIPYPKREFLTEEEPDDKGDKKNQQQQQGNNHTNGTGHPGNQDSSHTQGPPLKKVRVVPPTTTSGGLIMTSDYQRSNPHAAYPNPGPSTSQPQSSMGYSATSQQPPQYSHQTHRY
Sequence of Cyclin-dependent kinase 7 (P50613 whole entry): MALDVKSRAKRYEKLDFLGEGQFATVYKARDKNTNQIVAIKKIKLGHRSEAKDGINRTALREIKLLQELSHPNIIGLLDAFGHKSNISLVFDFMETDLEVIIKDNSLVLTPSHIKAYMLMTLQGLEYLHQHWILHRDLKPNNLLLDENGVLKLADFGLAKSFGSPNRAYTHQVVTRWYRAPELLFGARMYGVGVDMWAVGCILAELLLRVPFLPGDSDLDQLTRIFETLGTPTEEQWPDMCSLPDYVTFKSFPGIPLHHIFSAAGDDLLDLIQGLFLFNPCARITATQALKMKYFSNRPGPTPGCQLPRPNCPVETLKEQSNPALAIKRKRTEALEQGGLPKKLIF

In general, inhibition refers to the share of the control response that was lost under treatment. What is called IC50 is the concentration that gives 50% inhibition. The term Cmax denotes the peak of the concentration-time curve. As usually defined, the MRT is the average time that molecules of a dose stay in the body. The GI50 is the concentration giving 50% growth inhibition. Turning to `Nc1ccc(Oc2ccc(NC(=O)Nc3cccc(C(F)(F)F)c3)cc2)cn1`, the outcome with HCT-116 [1], in the data set with CT26 [4], in the data set on CT26 [7] and with HCT-116 [12] was Active. Also, the inhibition entry in data set [2] is “Active”. Further, the IC50 in data set [3] stood at 0.0996 µM. In data set [5], this compound displayed a Cmax of 453 ng/mL. Also, the MRT in data set [6] is 1.6 h; in data set [10] it was 0.9 h. The compound further came in with an inhibition in data set [8] of 73.6%. Also, the Activity entry in [9], in [11] and in data set [14] was “Non-Toxic” in each case. In addition, the GI50 with HCT-116 [13] is 17.5 µM.
